Literature values as cited in patent US12234263B2, “Influenza vaccines” (InvVax, Inc., priority 2016, dated 2025).

Tested on: CD8 T-cell
Settings: BALB/C; worldwideweb.fludb.org

## TYQRTRALV [SEQ ID NO: 37]
  experimentally validated CD8 T-cell epitope: experimentally validated BALB/C influenza A virus CD8 T-cell epitope
